Activity calls are given as the source filed them.

As a reminder, the AC50 is the concentration at which the activity in the assay is half-maximal. The term CC50 denotes the concentration that lowers cell viability or growth by half.

Holding throughout (type): functional
Experiment [1] can be described thus: intracellular Trypanosoma cruzi inhibitors in host cells – cell-based, plate reader, cherry-pick samples, set 3, dose response (AID 651818).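 Further: compounds incubated with infected cells for about four days.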
The target in the next experiment is Genome polyprotein (dengue virus type 2, UniProt P29990). The experiment in a line: Dengue-2 NS5 methyltransferase inhibitors, primary screen, biochemical, confirmation dose response (AID 588689).
The subject of the next experiment is Vero. The experiment in a line: Vero cell cytotoxicity, cytotoxicity control for flavivirus capping enzyme inhibitors (AID 588742). As to conditions: Chlorocebus sabaeus.
Experiment [2] concerns the target T1, Sentrin-specific protease 7 (Homo sapiens, UniProt Q9BQF6).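 Further: Luminescence-based dose-response confirmation of ultra-high-throughput screening hits, measuring inhibition of SENP7.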
T1 sequence (Q9BQF6 whole entry): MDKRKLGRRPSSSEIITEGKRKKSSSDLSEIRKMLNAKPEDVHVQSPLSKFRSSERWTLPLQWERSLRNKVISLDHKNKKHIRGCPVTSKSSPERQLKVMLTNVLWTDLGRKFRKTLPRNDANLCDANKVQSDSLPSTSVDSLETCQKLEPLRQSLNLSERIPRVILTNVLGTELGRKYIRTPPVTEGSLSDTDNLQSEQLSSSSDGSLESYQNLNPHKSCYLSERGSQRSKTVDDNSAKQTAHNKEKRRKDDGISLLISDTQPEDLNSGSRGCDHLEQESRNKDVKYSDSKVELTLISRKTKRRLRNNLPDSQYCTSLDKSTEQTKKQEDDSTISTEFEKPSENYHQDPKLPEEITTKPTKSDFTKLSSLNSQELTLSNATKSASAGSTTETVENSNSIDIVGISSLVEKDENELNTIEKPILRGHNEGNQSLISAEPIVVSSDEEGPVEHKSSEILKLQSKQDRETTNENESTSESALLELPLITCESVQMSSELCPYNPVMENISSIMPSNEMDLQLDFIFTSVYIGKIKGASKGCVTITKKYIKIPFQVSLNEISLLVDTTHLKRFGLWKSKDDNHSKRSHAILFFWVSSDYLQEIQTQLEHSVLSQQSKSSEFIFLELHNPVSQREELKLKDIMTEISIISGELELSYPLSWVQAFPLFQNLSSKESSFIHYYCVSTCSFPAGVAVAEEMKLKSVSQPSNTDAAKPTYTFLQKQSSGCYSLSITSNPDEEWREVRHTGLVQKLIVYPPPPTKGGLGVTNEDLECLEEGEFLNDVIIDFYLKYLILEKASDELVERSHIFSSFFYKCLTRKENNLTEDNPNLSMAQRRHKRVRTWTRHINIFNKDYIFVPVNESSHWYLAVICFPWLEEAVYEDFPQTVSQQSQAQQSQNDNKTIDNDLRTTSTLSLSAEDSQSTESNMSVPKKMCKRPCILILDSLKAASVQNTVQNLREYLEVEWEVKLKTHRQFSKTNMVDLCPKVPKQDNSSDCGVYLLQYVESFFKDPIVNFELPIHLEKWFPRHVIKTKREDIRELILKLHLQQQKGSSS

The target of experiment [3] is T2, Sentrin-specific protease 8 (Homo sapiens, UniProt Q96LD8).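 Further: luminescence read-out of SENP8 inhibition, dose-response confirmation following an ultra-high-throughput screen.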
T2 sequence (Q96LD8 whole entry): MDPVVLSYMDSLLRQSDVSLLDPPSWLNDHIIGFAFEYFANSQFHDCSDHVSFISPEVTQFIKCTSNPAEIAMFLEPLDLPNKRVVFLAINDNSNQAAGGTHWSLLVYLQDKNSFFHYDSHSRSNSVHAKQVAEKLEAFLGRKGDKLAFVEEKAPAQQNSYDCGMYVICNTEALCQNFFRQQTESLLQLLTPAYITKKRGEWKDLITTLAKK

Experiment [4] has as its target T3, Sentrin-specific protease 6 (Homo sapiens, UniProt Q9GZR1).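 Further: Luminescence-based dose-response confirmatory assay of SENP6 inhibition, following up an ultra-high-throughput screen.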
T3 sequence (Q9GZR1 whole entry): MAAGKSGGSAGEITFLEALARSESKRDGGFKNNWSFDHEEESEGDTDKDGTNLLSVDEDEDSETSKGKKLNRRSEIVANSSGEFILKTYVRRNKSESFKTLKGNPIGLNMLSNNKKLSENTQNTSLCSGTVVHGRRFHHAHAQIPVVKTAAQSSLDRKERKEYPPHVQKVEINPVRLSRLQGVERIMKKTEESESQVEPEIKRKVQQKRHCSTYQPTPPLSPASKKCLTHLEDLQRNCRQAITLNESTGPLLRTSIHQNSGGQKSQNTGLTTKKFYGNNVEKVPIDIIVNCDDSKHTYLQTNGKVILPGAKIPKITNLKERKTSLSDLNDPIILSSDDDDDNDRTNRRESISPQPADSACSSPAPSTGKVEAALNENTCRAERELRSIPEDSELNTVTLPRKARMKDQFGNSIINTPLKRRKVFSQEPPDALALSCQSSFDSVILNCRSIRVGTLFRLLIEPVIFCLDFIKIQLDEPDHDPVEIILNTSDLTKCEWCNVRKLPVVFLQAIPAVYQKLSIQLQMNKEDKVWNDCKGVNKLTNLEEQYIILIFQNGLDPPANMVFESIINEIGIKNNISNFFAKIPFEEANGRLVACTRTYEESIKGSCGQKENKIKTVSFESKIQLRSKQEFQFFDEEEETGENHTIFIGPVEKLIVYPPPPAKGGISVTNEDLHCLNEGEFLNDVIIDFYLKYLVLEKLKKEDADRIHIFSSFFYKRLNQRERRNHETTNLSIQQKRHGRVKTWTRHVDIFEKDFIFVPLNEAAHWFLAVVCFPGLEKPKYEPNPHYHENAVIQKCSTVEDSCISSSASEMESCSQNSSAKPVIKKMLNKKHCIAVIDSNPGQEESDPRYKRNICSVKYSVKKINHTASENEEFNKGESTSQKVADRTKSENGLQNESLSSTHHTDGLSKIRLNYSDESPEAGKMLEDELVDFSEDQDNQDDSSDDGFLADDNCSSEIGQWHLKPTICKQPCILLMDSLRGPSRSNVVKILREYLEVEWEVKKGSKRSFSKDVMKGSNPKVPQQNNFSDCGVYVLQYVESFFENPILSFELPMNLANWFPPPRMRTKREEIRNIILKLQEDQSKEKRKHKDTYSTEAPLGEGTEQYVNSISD

The target of another experiment is T4, Caspase-3 (Homo sapiens, UniProt P42574).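 Further: Dose-response selectivity test against caspase-3 for candidate inhibitors of sentrin-specific proteases (SENPs).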
T4 sequence (P42574 whole entry): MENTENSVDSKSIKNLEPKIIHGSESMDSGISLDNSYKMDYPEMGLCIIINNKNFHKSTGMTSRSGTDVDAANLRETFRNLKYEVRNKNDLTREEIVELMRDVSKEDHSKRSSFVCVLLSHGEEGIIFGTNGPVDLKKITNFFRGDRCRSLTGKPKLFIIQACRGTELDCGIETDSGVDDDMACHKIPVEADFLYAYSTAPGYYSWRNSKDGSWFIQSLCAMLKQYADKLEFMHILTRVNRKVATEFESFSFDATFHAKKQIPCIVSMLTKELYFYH

In experiment [5] the target is T5, Corticotropin-releasing factor receptor 2/Corticotropin-releasing factor-binding protein (Homo sapiens, UniProt P24387+Q13324).
T5 sequence (Q13324 whole entry): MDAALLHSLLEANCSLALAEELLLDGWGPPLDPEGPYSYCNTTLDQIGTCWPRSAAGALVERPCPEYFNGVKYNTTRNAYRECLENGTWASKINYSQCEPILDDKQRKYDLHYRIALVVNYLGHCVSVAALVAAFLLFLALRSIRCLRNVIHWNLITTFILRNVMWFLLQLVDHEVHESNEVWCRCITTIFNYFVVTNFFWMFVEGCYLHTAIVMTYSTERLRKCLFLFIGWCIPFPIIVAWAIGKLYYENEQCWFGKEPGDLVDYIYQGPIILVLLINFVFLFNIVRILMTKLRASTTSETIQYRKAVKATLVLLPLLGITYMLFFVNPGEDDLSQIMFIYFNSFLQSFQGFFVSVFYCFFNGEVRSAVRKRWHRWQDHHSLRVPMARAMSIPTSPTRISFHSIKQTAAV
T5 sequence (P24387 whole entry): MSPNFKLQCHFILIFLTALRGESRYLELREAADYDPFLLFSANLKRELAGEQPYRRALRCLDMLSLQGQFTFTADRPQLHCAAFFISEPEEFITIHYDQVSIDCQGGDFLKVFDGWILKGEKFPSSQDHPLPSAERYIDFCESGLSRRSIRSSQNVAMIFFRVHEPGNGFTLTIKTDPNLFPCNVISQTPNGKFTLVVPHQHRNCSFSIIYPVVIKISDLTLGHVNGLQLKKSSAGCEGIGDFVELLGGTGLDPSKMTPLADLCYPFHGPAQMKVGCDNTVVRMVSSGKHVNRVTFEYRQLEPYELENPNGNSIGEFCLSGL
The experiment in a line: Dose Response confirmation of uHTS hits for small molecule antagonists of the CRF-binding protein and CRF-R2 receptor complex. Conditions: read-out: IC50_Mean.

The target of experiment [6] is T5, Corticotropin-releasing factor receptor 2/Corticotropin-releasing factor-binding protein. The experiment in a line: activators of CRF receptor 2 with binding protein – uHTS hits, confirmation (AID 602473). Conditions: read-out: EC50_Mean.
Experiment [7] is described as follows: Luminescence Cell-Based Dose Response HTS to Identify Activators of Luciferase Translation or Activity in H4 […] Cells. [Related pubchem assays: 1829 (Project Summary), 1814 (Primary HTS)].
Another experiment has as its system H4. The experiment can be described thus: Luminescence Cell-Based Dose Response HTS to Identify Activators of 5'UTR Stem-Loop Driven Prion Protein mRNA Translation in H4 Neuroglioblastoma Cells. [Related pubchem assays: 1829 (Project Summary), 1814 (Primary HTS)]. Conditions: Homo sapiens.
Experiment [8] addresses T6, Heat shock factor protein 1 (Mus musculus, UniProt P38532).
T6 sequence (P38532 whole entry): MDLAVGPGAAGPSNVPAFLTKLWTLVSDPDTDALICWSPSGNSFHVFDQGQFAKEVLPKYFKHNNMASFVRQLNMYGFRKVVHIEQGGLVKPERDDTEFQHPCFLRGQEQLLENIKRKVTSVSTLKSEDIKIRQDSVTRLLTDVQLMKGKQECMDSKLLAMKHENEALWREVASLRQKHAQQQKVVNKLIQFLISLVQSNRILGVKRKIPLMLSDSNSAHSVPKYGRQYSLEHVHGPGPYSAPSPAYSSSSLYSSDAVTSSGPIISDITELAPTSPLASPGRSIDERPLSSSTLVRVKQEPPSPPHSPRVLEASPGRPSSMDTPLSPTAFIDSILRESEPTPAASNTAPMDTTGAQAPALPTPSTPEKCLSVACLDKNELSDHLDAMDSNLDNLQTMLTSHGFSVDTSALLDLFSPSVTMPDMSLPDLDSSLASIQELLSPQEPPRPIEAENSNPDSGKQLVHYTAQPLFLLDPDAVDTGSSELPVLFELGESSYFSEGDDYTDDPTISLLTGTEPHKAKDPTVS
The experiment can be described thus: inhibition of MG132-induced HSE-luciferase signal, confirmation, cell-based, NIH3T3, luminescence, dose retest (AID 2382).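 Further: NIH3T3 fibroblasts with HSF1-driven luciferase reporter stressed by proteasome inhibitor MG132; luminescence from HSF1-driven luciferase expression after 8 hours of MG132 stress.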

The next experiment deals with T7, Protein skinhead-1 (Caenorhabditis elegans, UniProt P34707).
T7 sequence (P34707 whole entry): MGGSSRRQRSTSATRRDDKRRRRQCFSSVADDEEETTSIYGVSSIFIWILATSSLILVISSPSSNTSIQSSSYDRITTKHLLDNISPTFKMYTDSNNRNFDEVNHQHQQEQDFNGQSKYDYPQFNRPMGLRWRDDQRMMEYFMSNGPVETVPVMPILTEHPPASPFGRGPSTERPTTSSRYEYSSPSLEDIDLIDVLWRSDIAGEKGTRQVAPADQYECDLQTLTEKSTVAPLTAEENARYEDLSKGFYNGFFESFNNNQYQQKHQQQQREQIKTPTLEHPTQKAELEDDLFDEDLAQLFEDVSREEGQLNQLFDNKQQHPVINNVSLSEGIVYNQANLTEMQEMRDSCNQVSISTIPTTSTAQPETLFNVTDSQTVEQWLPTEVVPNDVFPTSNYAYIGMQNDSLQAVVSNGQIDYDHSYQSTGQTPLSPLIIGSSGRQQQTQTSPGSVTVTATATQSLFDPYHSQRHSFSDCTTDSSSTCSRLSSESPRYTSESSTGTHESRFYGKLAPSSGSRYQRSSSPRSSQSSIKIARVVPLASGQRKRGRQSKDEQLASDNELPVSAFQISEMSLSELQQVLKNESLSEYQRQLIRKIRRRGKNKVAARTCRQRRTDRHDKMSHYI

Sequence of Genome polyprotein (P29990 2492-3391 limits assumed): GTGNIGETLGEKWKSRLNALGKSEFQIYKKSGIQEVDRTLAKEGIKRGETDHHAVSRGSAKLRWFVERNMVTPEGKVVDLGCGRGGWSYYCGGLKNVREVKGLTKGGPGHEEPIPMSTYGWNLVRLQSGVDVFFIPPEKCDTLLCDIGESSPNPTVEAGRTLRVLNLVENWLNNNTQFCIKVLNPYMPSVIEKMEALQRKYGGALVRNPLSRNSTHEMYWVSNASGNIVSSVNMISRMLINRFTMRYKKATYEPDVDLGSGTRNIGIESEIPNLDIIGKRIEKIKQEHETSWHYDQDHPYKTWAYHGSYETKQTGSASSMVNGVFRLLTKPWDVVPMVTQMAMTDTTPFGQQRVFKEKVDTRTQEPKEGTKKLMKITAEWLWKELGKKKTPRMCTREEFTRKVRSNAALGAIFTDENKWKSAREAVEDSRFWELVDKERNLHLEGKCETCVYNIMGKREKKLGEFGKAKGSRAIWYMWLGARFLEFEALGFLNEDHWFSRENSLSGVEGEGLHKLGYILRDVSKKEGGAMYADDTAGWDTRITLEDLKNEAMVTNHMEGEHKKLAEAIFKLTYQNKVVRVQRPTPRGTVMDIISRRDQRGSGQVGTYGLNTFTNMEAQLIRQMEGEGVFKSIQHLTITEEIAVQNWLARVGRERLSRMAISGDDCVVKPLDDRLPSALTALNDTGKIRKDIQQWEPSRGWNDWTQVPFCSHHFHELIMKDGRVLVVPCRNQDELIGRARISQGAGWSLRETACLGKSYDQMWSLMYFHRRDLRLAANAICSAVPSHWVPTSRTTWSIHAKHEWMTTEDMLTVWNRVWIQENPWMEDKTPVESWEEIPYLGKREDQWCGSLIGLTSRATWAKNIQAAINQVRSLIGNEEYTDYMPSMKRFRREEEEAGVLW

For the compound `C[C@H](CO)N1C[C@H](C)[C@H](CN(C)Cc2ccc(C(=O)Nc3ccccc3N)cc2)Oc2ccc(NC(=O)Nc3ccc4c(c3)OCO4)cc2C1=O`, the concentration at half-maximal activity (AC50) in [1] is 3.55 µM (active).
Take `C[C@@H]1CN([C@H](C)CO)C(=O)c2cccc(NC(=O)Nc3ccc(C(F)(F)F)cc3)c2O[C@H]1CN(C)Cc1ccc2c(c1)OCO2`: the AC50 in experiment [1] was 1.82 µM (active).
On to `N#CC(=C1C=C(Br)C(=NO)C=C1Cl)c1ccc(Cl)cc1`, for which the IC50 on Genome polyprotein was 62.4 µM (active). In addition, the CC50 with Vero is > 40 µM (active).
For `COc1ccc(C(=O)Nc2cccc(C(=O)O)c2)cc1S(=O)(=O)N1CCCC1`, the IC50 is 6.06 µM (active) in [2], 26.6 µM (active) in experiment [3], 22.1 µM (active) in experiment [4] and 46.9 µM (active) on Caspase-3.
As to `Cc1ccc(C(=O)Nc2ccccc2C(=O)NC2CCCCC2)cc1S(=O)(=O)N1CCOCC1`, the IC50 in experiment [5] is > 47.1 µM (inactive). In addition, the EC50 in experiment [6] was > 53 µM (inactive).
Consider `Cc1cccc(C(=O)N2c3ccccc3C(=O)OC2c2ccc3c(c2)OCO3)c1` (stereo not drawn), for which the IC50 in experiment [5] was < 0.368 µM (active). Also, the EC50 in experiment [6] was > 53 µM (inactive).
For the compound `Cc1cc(O)c(C2=Nc3ccccc3SC(c3ccc(Cl)cc3)C2)c(=O)o1` (stereo not drawn), the IC50 in experiment [5] is > 47.1 µM (inactive). Moreover, the EC50 was > 53 µM (inactive) in experiment [6], 38.4 µM (active) in experiment [7], 107 µM (inconclusive) in the experiment on H4 and 21 µM (active) in experiment [8].
In the case of `COC(=O)C1=C(C)N=C(C)/C(=C(/O)OC)C1/C=C/c1ccccc1` (stereo not drawn), in experiment [5], the IC50 is > 47.1 µM (inactive). The EC50 in experiment [6] was > 53 µM (inactive).
Regarding `O=[N+]([O-])c1ccc(CSc2nc3ccccc3o2)cc1`, the IC50 was 7.69 µM (active) in experiment [2]; > 100 µM (inactive) at Protein skinhead-1; 16.2 µM (active) in experiment [3]; 23.3 µM (active) in [4]; 25.6 µM (active) on Caspase-3.
On to `Cc1ccc(C(=O)Nc2cccc3cccnc23)cc1C`, for which the IC50 in experiment [2] is 3.98 µM (active); in experiment [3] it was 18.8 µM (active); in experiment [4] it was 14.5 µM (active); on Caspase-3, 15.6 µM (active).

Source of the values: ChEMBL document CHEMBL1201862, “PubChem BioAssay data set” (2004).
